Experimental data published in the NIST ThermoML archive (doi:10.1016/j.jct.2012.10.023).
± gives the expanded uncertainty stated by the source.

Test: xn = mol fraction of the nth substance listed
Details: 101 kPa, Liquid; for speed of sound: Sing-around technique in a fixed-path interferometer; for mass density: Vibrating tube method

CCCCCCCCCO [nonan-1-ol] + Cc1ccc(C)cc1
Details | mass density, 298.15 K [kg/m3] | mass density, 308.15 K [kg/m3] | speed of sound, 298.15 K [m/s] | speed of sound, 308.15 K [m/s]
x2 = 0 | 824.271 ± 0.17 | 817.362 ± 0.17 | 1363.1 ± 1 | 1330.4 ± 1
x2 = 0.0611 | 825.819 ± 0.18 | 818.805 ± 0.18 | 1360.1 ± 1 | 1326.3 ± 1
x2 = 0.1108 | 827.09 ± 0.18 | 819.99 ± 0.18 | 1357.1 ± 1 | 1322.6 ± 1
x2 = 0.1652 | 828.491 ± 0.19 | 821.297 ± 0.19 | 1353.4 ± 1.1 | 1318.2 ± 1
x2 = 0.226 | 830.074 ± 0.19 | 822.774 ± 0.19 | 1349 ± 1.1 | 1313.3 ± 1.1
x2 = 0.2932 | 831.854 ± 0.2 | 824.435 ± 0.2 | 1343.9 ± 1.1 | 1307.5 ± 1.1
x2 = 0.3651 | 833.819 ± 0.21 | 826.271 ± 0.21 | 1338.4 ± 1.1 | 1301.2 ± 1.1
x2 = 0.4248 | 835.506 ± 0.21 | 827.851 ± 0.21 | 1333.5 ± 1.1 | 1296.1 ± 1.1
x2 = 0.5023 | 837.784 ± 0.22 | 829.988 ± 0.23 | 1327.5 ± 1.1 | 1289.7 ± 1.1
x2 = 0.558 | 839.499 ± 0.23 | 831.601 ± 0.23 | 1323.3 ± 1.2 | 1285.2 ± 1.1
x2 = 0.6359 | 842.032 ± 0.24 | 833.99 ± 0.24 | 1318.1 ± 1.2 | 1279.6 ± 1.2
x2 = 0.7123 | 844.678 ± 0.25 | 836.494 ± 0.25 | 1313.8 ± 1.2 | 1274.8 ± 1.2
x2 = 0.7744 | 846.969 ± 0.26 | 838.668 ± 0.26 | 1311 ± 1.2 | 1271.7 ± 1.2
x2 = 0.8514 | 850.015 ± 0.27 | 841.569 ± 0.28 | 1308.9 ± 1.3 | 1269 ± 1.2
x2 = 0.9286 | 853.306 ± 0.29 | 844.715 ± 0.29 | 1308 ± 1.3 | 1268 ± 1.3

CCCCCCCCCO [nonan-1-ol] + Cc1cccc(C)c1
Details | mass density, 298.15 K [kg/m3] | mass density, 308.15 K [kg/m3] | speed of sound, 298.15 K [m/s] | speed of sound, 308.15 K [m/s]
x2 = 0 | 824.271 ± 0.17 | 817.362 ± 0.17 | 1363.1 ± 1 | 1330.4 ± 1
x2 = 0.066 | 826.04 ± 0.17 | 819.011 ± 0.17 | 1360.2 ± 1 | 1326.5 ± 0.99
x2 = 0.127 | 827.699 ± 0.17 | 820.562 ± 0.17 | 1357 ± 1 | 1322.5 ± 0.98
x2 = 0.1739 | 828.993 ± 0.16 | 821.778 ± 0.17 | 1354.2 ± 0.99 | 1319.2 ± 0.98
x2 = 0.2461 | 831.027 ± 0.16 | 823.695 ± 0.16 | 1349.4 ± 0.98 | 1313.9 ± 0.97
x2 = 0.2913 | 832.335 ± 0.16 | 824.932 ± 0.16 | 1346.4 ± 0.98 | 1310.4 ± 0.96
x2 = 0.3635 | 834.482 ± 0.16 | 826.964 ± 0.16 | 1341.4 ± 0.97 | 1304.8 ± 0.95
x2 = 0.4422 | 836.925 ± 0.15 | 829.276 ± 0.16 | 1335.9 ± 0.96 | 1298.9 ± 0.94
x2 = 0.4872 | 838.383 ± 0.15 | 830.658 ± 0.15 | 1332.9 ± 0.96 | 1295.5 ± 0.94
x2 = 0.5648 | 841.002 ± 0.15 | 833.142 ± 0.15 | 1328.2 ± 0.95 | 1290.1 ± 0.93
x2 = 0.6251 | 843.155 ± 0.14 | 835.189 ± 0.15 | 1324.7 ± 0.94 | 1286.3 ± 0.92
x2 = 0.6873 | 845.49 ± 0.14 | 837.419 ± 0.15 | 1321.9 ± 0.93 | 1283 ± 0.92
x2 = 0.7713 | 848.867 ± 0.14 | 840.659 ± 0.14 | 1319 ± 0.93 | 1279.5 ± 0.91
x2 = 0.8508 | 852.346 ± 0.14 | 843.997 ± 0.14 | 1317.8 ± 0.92 | 1277.7 ± 0.9
x2 = 0.9284 | 856.073 ± 0.13 | 847.58 ± 0.14 | 1318 ± 0.91 | 1277.6 ± 0.9

CCCCCCCCCO [nonan-1-ol] + Cc1ccccc1C
Details | mass density, 298.15 K [kg/m3] | mass density, 308.15 K [kg/m3] | speed of sound, 298.15 K [m/s] | speed of sound, 308.15 K [m/s]
x2 = 0 | 824.271 ± 0.17 | 817.362 ± 0.17 | 1363.1 ± 1 | 1330.4 ± 1
x2 = 0.0653 | 826.644 ± 0.17 | 819.637 ± 0.17 | 1361.7 ± 1 | 1328.2 ± 0.99
x2 = 0.136 | 829.283 ± 0.17 | 822.169 ± 0.17 | 1359.7 ± 1 | 1325.5 ± 0.98
x2 = 0.1773 | 830.871 ± 0.16 | 823.694 ± 0.17 | 1358.3 ± 0.99 | 1323.7 ± 0.98
x2 = 0.2281 | 832.869 ± 0.16 | 825.612 ± 0.16 | 1356.5 ± 0.99 | 1321.4 ± 0.97
x2 = 0.2834 | 835.111 ± 0.16 | 827.766 ± 0.16 | 1354.3 ± 0.98 | 1318.8 ± 0.97
x2 = 0.3463 | 837.756 ± 0.16 | 830.309 ± 0.16 | 1351.8 ± 0.98 | 1315.8 ± 0.96
x2 = 0.4203 | 841.015 ± 0.15 | 833.448 ± 0.15 | 1348.8 ± 0.97 | 1312.5 ± 0.95
x2 = 0.4761 | 843.593 ± 0.15 | 835.935 ± 0.15 | 1346.7 ± 0.96 | 1310 ± 0.95
x2 = 0.5478 | 847.079 ± 0.15 | 839.304 ± 0.15 | 1344.3 ± 0.96 | 1307.3 ± 0.94
x2 = 0.6327 | 851.482 ± 0.14 | 843.569 ± 0.14 | 1342.2 ± 0.95 | 1304.7 ± 0.93
x2 = 0.7121 | 855.922 ± 0.14 | 847.884 ± 0.14 | 1341.1 ± 0.94 | 1303 ± 0.92
x2 = 0.7974 | 861.062 ± 0.13 | 852.892 ± 0.14 | 1341 ± 0.93 | 1302.3 ± 0.92
x2 = 0.8695 | 865.751 ± 0.13 | 857.475 ± 0.13 | 1342.1 ± 0.93 | 1302.8 ± 0.91
x2 = 0.9287 | 869.902 ± 0.12 | 861.543 ± 0.13 | 1344 ± 0.93 | 1304.3 ± 0.91
